# ChEMBL document CHEMBL3872241, “Synthesis and bioactivity evaluation of 2,3-diaryl acrylonitrile derivatives as potential anticancer agents” (Bioorg Med Chem Lett, 2017)
# Activity calls are given as the source filed them. The rule behind the calls is not given here.
# Columns and labels:
# [1] = Cytotoxicity against human L02 cells assessed as cell growth inhibition at 100 uM after 48 hrs by MTT assay; type: toxicity, cell-based; conditions: read-out: GI
# [2] = Cytotoxicity against human HCT116 cells assessed as cell growth inhibition after 48 hrs by MTT assay; type: functional, cell-based; conditions: HCT-116, 48 h
# [3] = Cytotoxicity against human HeLa cells assessed as cell growth inhibition at 100 uM after 48 hrs by MTT assay; type: functional; conditions: read-out: GI
# [4] = (§1) Cytotoxicity against human HCT116 cells assessed as cell growth inhibition at 100 uM after 48 hrs by MTT assay; type: functional; conditions: HCT-116, 48 h, read-out: GI
# [5] = (§2) Cytotoxicity against human Bel7402 cells assessed as cell growth inhibition at 100 uM after 48 hrs by MTT assay; type: functional; conditions: Bel-7402, 48 h, read-out: GI
# [6] = Cytotoxicity against human Bel7402 cells assessed as cell growth inhibition after 48 hrs by MTT assay; type: functional, cell-based; conditions: Bel-7402, 48 h
# [7] = Cytotoxicity against human HeLa cells assessed as cell growth inhibition after 48 hrs by MTT assay; type: functional, cell-based
# [8] = Cytotoxicity against human L02 cells assessed as cell growth inhibition after 48 hrs by MTT assay; type: toxicity, cell-based
# HeLa [9] = assay: Induction of apoptosis in human HeLa cells assessed as increase in early apoptotic cells at 0.1 uM after 24 hrs by Annexin V-FITC/propidium iodide based FACS analysis; type: functional, cell-based
# [10] = Cell cycle arrest in human HeLa cells assessed as accumulation at G2/M phase at 0.1 to 1 uM after 24 hrs by propidium iodide-based FACS analysis (reference value: 7.12%); type: functional
# HeLa [11] = assay: Antimigratory activity in human HeLa cells at 1 uM after 24 hrs by wound-scratch assay; type: functional, cell-based
# HeLa [12] = assay: Selectivity index, ratio of IC50 for human L02 cells to IC50 for human HeLa cells; type: functional
# [13] = Cell cycle arrest in human HeLa cells assessed as accumulation at S phase at 0.1 to 1 uM after 24 hrs by propidium iodide-based FACS analysis (reference value: 31.26%); type: functional
# [14] = Cell cycle arrest in human HeLa cells assessed as accumulation at G0/G1 phase at 0.1 to 1 uM after 24 hrs by propidium iodide-based FACS analysis (reference value: 61.71%); type: functional
# Bel-7402 [15] = assay: Selectivity index, ratio of IC50 for human L02 cells to IC50 for human Bel7402 cells; type: functional
# HCT-116 [16] = assay: Selectivity index, ratio of IC50 for human L02 cells to IC50 for human HCT116 cells; type: functional
# [17] = Cytotoxicity against human Caco2 cells assessed as cell growth inhibition at 0.3 uM by SRB assay; type: functional; conditions: Caco-2, read-out: GI
# HCT-116 [18] = assay: as §1; type: functional
# Bel-7402 [19] = assay: as §2; type: functional
# [20] = Cell cycle arrest in human HeLa cells assessed as accumulation at G2/M phase at 50 uM after 24 hrs by propidium iodide-based FACS analysis (reference value: 7.12%); type: functional
# [21] = Cell cycle arrest in human HeLa cells assessed as accumulation at S phase at 50 uM after 24 hrs by propidium iodide-based FACS analysis (reference value: 31.26%); type: functional
# [22] = Cell cycle arrest in human HeLa cells assessed as accumulation at G0/G1 phase at 50 uM after 24 hrs by propidium iodide-based FACS analysis (reference value: 61.71%); type: functional
Structure (SMILES),"inhibition at 48 h, 100 µM [1] [%]",IC50 [2] [µM],inhibition of growth at 100 µM [3] [%],inhibition of growth at 100 µM [4] [%],inhibition of growth at 100 µM [5] [%],IC50 [6] [µM],IC50 [7] [µM],IC50 at 48 h [8] [µM],other results
COc1cc(OC)cc(/C(C#N)=C/c2c(F)cccc2Cl)c1,41.8,> 100,35.9,32.9,11.1,> 100,> 100,> 100,
COc1cc(OC)cc(/C(C#N)=C/c2ccc(OCc3ccccc3)cc2)c1,32.7,> 100,20.7,18.7,18.6,> 100,> 100,> 100,
COc1cc(OC)cc(/C(C#N)=C/c2ccccc2)c1,36.4,> 100,28,27.1,34.8,> 100,> 100,> 100,
CCCOc1ccccc1/C=C(\C#N)c1cc(OC)cc(OC)c1,6.4,> 100,,27.7,4.9,> 100,> 100,> 100,
CC(=O)O[C@H]1C(=O)[C@@]2(C)[C@H]([C@H](OC(=O)c3ccccc3)[C@]3(O)C[C@H](OC(=O)[C@H](O)[C@@H](NC(=O)c4ccccc4)c4ccccc4)C(C)=C1C3(C)C)[C@]1(OC(C)=O)CO[C@@H]1C[C@@H]2O [PACLITAXEL],,< 0.1,,,,< 0.1,13,> 100,Activity (HeLa [9]): Active; Activity [10]: 70.6%; Activity (HeLa [11]): Active; Ratio IC50 (HeLa [12]): >7.72; Activity [13]: 28.5%; Activity [14]: 1.03%; Ratio IC50 (Bel-7402 [15]): >1000; Ratio IC50 (HCT-116 [16]): >1000
COc1cc(OC)cc(/C(C#N)=C/c2ccc(Br)cc2)c1,36,11.4,,,31.6,> 100,4.2,> 100,Activity [10]: 69.9%; Ratio IC50 (HeLa [12]): >23.81; Activity [13]: 30.1%; Activity [14]: 0.7%; Ratio IC50 (HCT-116 [16]): >8.79
CCCCOc1ccc(/C=C(\C#N)c2cc(OC)cc(OC)c2)cc1,35.7,> 100,18.6,45,15.4,> 100,> 100,> 100,
"COc1ccc(/C=C\c2cc(OC)cc(OC)c2)cc1 [8Z-3,4',5-TRIMETHOXYSTILBENE]",,,,,,,,,inhibition of growth at 0.3 µM [17]: 80%
COc1cc(OC)cc(/C(C#N)=C/c2cccc(Br)c2)c1,43.2,> 100,40.2,38.2,19.8,> 100,> 100,> 100,
COc1cc(OC)cc(/C(C#N)=C/c2cccc(C(F)(F)F)c2)c1,29.4,> 100,18.3,28.7,20,> 100,> 100,> 100,
CCOc1ccc(/C=C(\C#N)c2cc(OC)cc(OC)c2)cc1,34.7,0.13,,,,0.66,7.77,> 100,Activity [10]: 51.6%; Ratio IC50 (HeLa [12]): >12.87; Activity [13]: 47.6%; Activity [14]: 0.74%; Ratio IC50 (Bel-7402 [15]): >151.52; Ratio IC50 (HCT-116 [16]): >769.23
CCOc1cccc(/C=C(\C#N)c2cc(OC)cc(OC)c2)c1,18.5,> 100,8.9,38.8,5.1,> 100,> 100,> 100,
COc1cc(OC)cc(/C(C#N)=C/c2ccccc2C(F)(F)F)c1,33.6,> 100,4.9,26.6,11.4,> 100,> 100,> 100,
COc1cc(OC)cc(/C(C#N)=C/c2ccc(OCC(C)C)cc2)c1,13.6,> 100,22.4,32.3,7.6,> 100,> 100,> 100,
COc1cc(OC)cc(/C(C#N)=C/c2ccc(F)cc2)c1,2.5,> 100,45.8,27.8,9.3,> 100,> 100,> 100,
COc1cccc(/C=C(\C#N)c2cc(OC)cc(OC)c2)c1,19.5,> 100,36.4,41.1,12.4,> 100,> 100,> 100,
COc1cc(OC)cc(/C(C#N)=C/c2cc(OC)c(OC)c(OC)c2)c1,11.6,> 100,24.9,24.1,22.3,> 100,> 100,> 100,
Oc1ccc(/C=C/c2cc(O)cc(O)c2)cc1 [RESVERATROL],,62.6,,,,139,120,,growth inhibition (GI) (HCT-116 [18]): Active; growth inhibition (GI) (Bel-7402 [19]): Active; Activity [20]: 6.29%; Activity [21]: 21.8%; Activity [22]: 72%
COc1cc(OC)cc(/C(C#N)=C/c2c(C)cc(C)cc2C)c1,28.1,> 100,2.7,28.9,13.4,> 100,> 100,> 100,
